Laboratory results published in patent US8076449B2, “Therapeutic agents of colivelin for neurodegenerative diseases” (Tomohiro Chiba, priority 2004, dated 2011).
Ends that are not written are not given here.

How the values were obtained:
[1] = tested on: F11 cells transformed with M146L-PS1; details: as already reported; cited from earlier work
[2] = tested on: CD-1 mice icv-administered with Aβ (25-35); test: Y-maze spatial working memory impairment induced by Aβ (25-35), icv administration; type: in vivo, mouse; details: 1 nmol colivelin icv, 10 nmol Aβ (25-35) icv, 3 weeks after Aβ
Method: The icv administration of Aβ peptides has been reported to induce spatial working memory impairment. […] In this test, the in vivo neuroprotective effect of colivelin on Aβ toxicity was examined.
Male CD-1 mice at 3 months of age were icy-administered once every three weeks with 1 nmol colivelin together with 3 μl of saline or 3 μl of saline alone into the left lateral ventricles. After 1 hour from the first administration of colivelin, 5 μl of saline together with 10 nmol Aβ (25-35) or 5 μl of saline alone was administered to the right lateral ventricles. After 3 weeks from the Aβ peptide administration, each mouse was examined for spatial working memory in a Y-maze. The Y-maze was made of three gray plastic arms (40 cm long, 12 cm high, 3 cm wide at the bottom, and 10 cm wide at the top) connected to each other at angles of 120°. The mice were individually placed at the end of one arm of the Y-maze and allowed to freely explore the arms for 8 minutes. Items examined were (1) frequency of entry into each arm, (2) total arm entry times, (3) spontaneous alternation percentage, and (4) events. The spontaneous alternation percentage was defined as a ratio of the arm choices that differed from the previous two choices (“successful choices”) to total choices during the run (“total entry minus two”, because the first two choices could not be evaluated for success or failure during the run). […]

[3] = tested on: ChAT(+) neurons in the ventral gray column of ALS model mice; test: Immunohistochemical count of ChAT(+) neurons in spinal cord sections from dead ALS model mice; type: in vivo, mouse; details: spinal cord (L1-3) sections from dead mice
Method: Spinal cord (L1-3) sections from wild-type (n=3, FIG. 9a), control (saline-treated) (n=5, FIG. 9b), ADNF-treated (n=3, FIG. 9c), AGA-C8R-HNG17-treated (n=14, FIG. 9d), or colivelin-treated (n=12, FIG. 9e) mice were immunostained with an anti-ChAT antibody to count ChAT(+) neurons in the ventral gray columns of the spinal cords. The sections were prepared from dead mice. The average number of ChAT(+) neurons per section was compared among the mice (FIG. 9f). Statistical analysis was conducted by one-way ANOVA, followed by Fischer's PLSD test (**p<0.01); and
(§1) The immunohistochemical analysis of neuroprotective effect was conducted using ALS model mice (n=12, FIG. 9e) administered with colivelin, in comparison to wild type (n=3, FIG. 9a), control (saline-treated) (n=5, FIG. 9b), A DNF-treated (n=3, FIG. 9c), and AGA-C8R-HNG17-treated (n=14, FIG. 9d) mice. Spinal cord (L1-3) sections from dead mice in each group were immunostained with an anti-ChAT antibody to count ChAT(+) neurons in the ventral gray column (FIG. 9f).

[4] = tested on: ChAT(+) neurons in the ventral gray column of ALS model mice; test: Immunohistochemical count of ChAT(+) neurons in spinal cord sections from 120-day-old ALS model mice; type: in vivo, mouse; details: spinal cord (L1-3) sections from 120-day-old mice
Method: Spinal cord (L1-3) sections from wild-type (n=3, FIG. 10A), control (saline-treated) (n=5, FIG. 10B), ADNF-treated (n=3, FIG. 10C), or colivelin-treated (n=12, FIG. 10D) mice were immunostained with an anti-ChAT antibody to count ChAT(+) neurons in the ventral gray column. The sections were prepared from 120-day-old mice (see FIG. 8d). The average number of ChAT(+) neurons per section was compared among the mice (FIG. 10E). Statistical analysis was conducted by one-way ANOVA, followed by Fischer's PLSD test (**p<0.01; *p<0.05).
as §1, with “10D)” for “9e)”, “10A),” for “9a),”, “10B), and ADNF-treated” for “9b), A DNF-treated”, “10C)” for “9c), and AGA-C8R-HNG17-treated (n=14, FIG. 9d)”, “the” for “dead”, “9f). The sections were prepared from 120-day-old mice with motor function increased by colivelin and ADNF (see FIG. 8d)” for “9f).”

| Sequence | suppression of cell death caused by M146L-PS1 [1] | spontaneous alternation percentage (SA %) in Y-maze [2] | number of ChAT(+) neurons per section in the spinal cord [3] | number of ChAT(+) neurons per section in the spinal cord [4] |
| --- | --- | --- | --- | --- |
| SALLRSIPA [ADNF, reference compound] | does not suppress |  |  |  |
| SALLRSIPAPAGASRLLLLTGEIDLP [colivelin] |  | 70% | approximately 19 | approximately 32 |
